Measured values from PMC7159882, “Polyunsaturated fatty acid analogues differentially affect cardiac NaV, CaV, and KV channels through unique mechanisms” (eLife, 2020).

Biological target: T1, Nav1.5/β1 (Homo sapiens, UniProt Q14524)
T1 construct: Nav1.5 (UniProt: Q14524.1); expressed in transfected cells; host or cells: Xenopus laevis oocytes (cRNA injection, Nav1.5:β1 2:1 by weight)
Experiment: Two-electrode voltage clamp of Nav1.5/β1 expressed in Xenopus oocytes
Assay type: cell-based
Settings: 0.2 μM
Method: Molecular Biology cRNA encoding Kv7.1 (UniProt: P51787), KCNE1 (UniProt: P15382.1), Nav1.5 (UniProt: Q14524.1), Nav β1 (UniProt: […]), Nav β3 (UniProt: […]), Cav1.2 (GenBank: CAA84346), Cav β3 (Uniprot: P54286), Cav β2 (Uniprot: P54288), and Cav α2δ (Uniprot: P13806) were transcribed using the mMessage mMachine T7 kit (Ambion). 50 ng of cRNA was injected into defolliculated Xenopus laevis oocytes (Ecocyte, Austin, TX): For Kv7.1/KCNE1 channel expression, we injected a 3:1, weight:weight (Kv7.1:KCNE1) cRNA ratio. For Nav1.5 channel expression, we injected a 2:1, weight:weight (Nav1.5:β1) cRNA ratio. For Cav1.2 channel expression, we injected a 2:1:1, weight:weight (Cav1.2:β3:α2δ) cRNA ratio. The exact stoichiometry for channel macromolecular complexes, including α -subunits and auxiliary subunits is not clear for many ion channels. For example, there have been multiple reported stoichiometries for Kv7.1:KCNE1 determined in heterologous expression systems with some groups reporting flexible stoichiometry of 4 Kv7.1: 1–4 KCNE1 and others reporting a fixed stoichiometry of 4 Kv7.1: 2 KCNE1 ([Murray et al., 2016]; [Nakajo et al., 2010]). The ratios of cRNA of α- and auxiliary subunits that we injected in Xenopus laevis oocytes are such that all α-subunits are assumed to be in complex with auxiliary subunits. This allows a more homogenous population of ion channels with auxiliary subunits. One caveat to expressing ion channels as macromolecular complexes is that there are many other auxiliary subunits that could associate with the channel α -subunit that are present in cardiomyocytes and have the potential to alter PUFA-induced effects, but that are not being co-expressed in our experiments. In this work, we are co-expressing some of the auxiliary subunits that have been primarily reported to associate with their respective α -subunits in cardiomyocytes. Following cRNA injection, cells were incubated for 72–96 hr in standard ND96 solution (96 mM NaCl, 2 mM KCl, 1 mM MgCl2, 1.8 mM CaCl2, 5 mM HEPES; pH = 7.5) containing 1 mM pyruvate at 16°C prior to electrophysiological recordings.
Xenopus laevis oocytes were recorded in the two-electrode voltage clamp (TEVC) configuration. Recording pipettes were filled with 3 M KCl. The recording chamber was filled with ND96 (96 mM NaCl, 2 mM KCl, 1 mM MgCl2, 1.8 mM CaCl2, 5 mM HEPES; pH 7.5). For Cav1.2/β3/α2δ channel recordings, Xenopus oocytes were injected with 50 nl of 100 mM EGTA and incubated at 10°C for 30 min prior to electrophysiological recordings in order to sequester cytosolic calcium. In addition, Cav1.2/β3/α2δ channel recordings were done in Ca^2+-free solutions, using Ba^2+ as the charge carrier, to prevent calcium-dependent inactivation of Cav1.2/β3/α2δ channels. Calcium-dependent inactivation was not studied in this work, due to the presence of large calcium-activated chloride currents present in Xenopus laevis oocytes. PUFAs were obtained from Cayman Chemical (Ann Arbor, MI.) or synthesized in house (Linköping, Sweden) through methods previously described ([Bohannon et al., 2020]) and kept at −20 °C as 100 mM stock solutions in ethanol. Serial dilutions of the different PUFAs were prepared from stocks to make 0.2 μM, 0.7 μM, 2 μM, 7 μM, and 20 μM concentrations in ND96 solutions (pH = 7.5). PUFAs were perfused into the recording chamber using the Rainin Dynamax Peristaltic Pump (Model RP-1) (Rainin Instrument Co., Oakland, CA. USA).
Electrophysiological recordings were obtained using Clampex 10.3 software (Axon, pClamp, Molecular Devices). To measure Kv7.1/KCNE1 currents we apply PUFAs as the membrane potential is stepped every 30 s from −80 mV to 0 mV for 5 s before stepping to −40 mV and back to −80 mV to ensure that the PUFA effects on the current at 0 mV reached steady state. A voltage-step protocol was used to measure the current vs. voltage (I-V) relationship before PUFA application and after the PUFA effects had reached steady state for each concentration of PUFA. […]

T1 sequence (Q14524 whole entry): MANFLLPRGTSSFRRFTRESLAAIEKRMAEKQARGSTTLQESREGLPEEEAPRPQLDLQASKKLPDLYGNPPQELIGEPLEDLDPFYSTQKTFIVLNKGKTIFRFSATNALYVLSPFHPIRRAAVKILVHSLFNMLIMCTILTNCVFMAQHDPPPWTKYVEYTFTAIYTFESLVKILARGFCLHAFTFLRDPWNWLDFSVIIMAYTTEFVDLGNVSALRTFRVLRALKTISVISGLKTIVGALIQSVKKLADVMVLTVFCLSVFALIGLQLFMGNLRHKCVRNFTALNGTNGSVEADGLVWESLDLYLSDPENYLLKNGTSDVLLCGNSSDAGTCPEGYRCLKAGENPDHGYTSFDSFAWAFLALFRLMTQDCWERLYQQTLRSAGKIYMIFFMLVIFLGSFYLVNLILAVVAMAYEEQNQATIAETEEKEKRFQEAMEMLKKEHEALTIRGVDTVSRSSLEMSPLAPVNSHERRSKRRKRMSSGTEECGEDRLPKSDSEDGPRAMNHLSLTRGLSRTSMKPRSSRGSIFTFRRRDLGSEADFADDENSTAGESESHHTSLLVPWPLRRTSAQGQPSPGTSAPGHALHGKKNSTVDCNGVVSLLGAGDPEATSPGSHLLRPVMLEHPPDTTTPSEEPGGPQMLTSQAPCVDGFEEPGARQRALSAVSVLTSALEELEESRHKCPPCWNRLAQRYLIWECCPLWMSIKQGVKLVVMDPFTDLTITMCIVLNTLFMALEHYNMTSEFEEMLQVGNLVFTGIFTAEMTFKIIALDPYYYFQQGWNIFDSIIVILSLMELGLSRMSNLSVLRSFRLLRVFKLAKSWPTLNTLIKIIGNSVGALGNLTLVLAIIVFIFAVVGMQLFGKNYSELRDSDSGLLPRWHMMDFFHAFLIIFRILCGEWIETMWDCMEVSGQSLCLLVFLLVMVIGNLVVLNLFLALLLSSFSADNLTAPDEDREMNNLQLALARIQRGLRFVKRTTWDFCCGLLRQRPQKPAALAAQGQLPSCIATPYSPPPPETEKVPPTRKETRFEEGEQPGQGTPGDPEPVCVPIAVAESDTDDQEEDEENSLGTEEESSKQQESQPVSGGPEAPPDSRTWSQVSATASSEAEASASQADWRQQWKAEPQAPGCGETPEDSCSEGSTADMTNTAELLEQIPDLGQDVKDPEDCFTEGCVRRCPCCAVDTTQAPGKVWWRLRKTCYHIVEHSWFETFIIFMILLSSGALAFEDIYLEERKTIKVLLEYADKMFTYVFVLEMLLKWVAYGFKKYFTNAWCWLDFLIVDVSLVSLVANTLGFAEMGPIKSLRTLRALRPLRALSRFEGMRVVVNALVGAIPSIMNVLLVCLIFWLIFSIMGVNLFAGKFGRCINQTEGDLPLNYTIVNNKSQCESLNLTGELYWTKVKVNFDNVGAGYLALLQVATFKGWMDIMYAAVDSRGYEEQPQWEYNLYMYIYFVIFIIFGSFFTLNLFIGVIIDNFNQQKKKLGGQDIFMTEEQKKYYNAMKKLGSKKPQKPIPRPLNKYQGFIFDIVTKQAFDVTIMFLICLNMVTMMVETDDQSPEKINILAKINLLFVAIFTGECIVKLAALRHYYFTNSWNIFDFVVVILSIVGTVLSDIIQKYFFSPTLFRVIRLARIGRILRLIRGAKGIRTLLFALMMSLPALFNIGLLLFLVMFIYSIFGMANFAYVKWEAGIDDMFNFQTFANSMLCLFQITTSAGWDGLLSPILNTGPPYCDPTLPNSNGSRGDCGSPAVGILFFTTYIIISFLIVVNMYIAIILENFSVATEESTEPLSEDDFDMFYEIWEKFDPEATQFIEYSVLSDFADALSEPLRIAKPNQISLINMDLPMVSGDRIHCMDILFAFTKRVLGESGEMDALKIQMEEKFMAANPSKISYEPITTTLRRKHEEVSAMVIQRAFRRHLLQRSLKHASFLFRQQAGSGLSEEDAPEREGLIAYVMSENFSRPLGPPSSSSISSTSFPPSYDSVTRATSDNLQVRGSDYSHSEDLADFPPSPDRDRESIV
T1 sequence (Q07699 19-218 partner): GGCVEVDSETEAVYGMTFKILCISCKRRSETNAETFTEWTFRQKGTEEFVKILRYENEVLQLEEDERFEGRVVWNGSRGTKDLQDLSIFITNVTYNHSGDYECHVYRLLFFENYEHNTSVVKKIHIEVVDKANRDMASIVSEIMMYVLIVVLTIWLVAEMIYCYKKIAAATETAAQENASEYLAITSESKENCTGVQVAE

| Compound | Gmax/Gmax0 | ΔV0.5 (voltage dependence of inactivation) [mV] |
| --- | --- | --- |
| CCCCC/C=C\C/C=C\CCCCCCCC(=O)NCCS(=O)(=O)O [Lin-taurine, Linoleoyl taurine] | 1.0 ± 0.01 | -0.3 ± 0.1 |
| CCCCC/C=C\C/C=C\CCCCCCCC(=O)NCC(=O)O [Lin-glycine] | 1.0 ± 0.03 | -0.2 ± 0.06 |
| CCCCC/C=C\C/C=C\CC/C=C\CCCC(=O)NCC(=O)O [Pin-glycine] | 1.0 ± 0.03 | 0.4 ± 0.3 |

Same assay, conditions: 0.2 μM; relative current at 0 mV

| Compound | INa I/I0 |
| --- | --- |
| CCCCC/C=C\C/C=C\CCCCCCCC(=O)NCCS(=O)(=O)O [Lin-taurine, Linoleoyl taurine] | 1.0 ± 0.01 |
| CCCCC/C=C\C/C=C\CCCCCCCC(=O)NCC(=O)O [Lin-glycine] | 1.0 ± 0.03 |
| CCCCC/C=C\C/C=C\CC/C=C\CCCC(=O)NCC(=O)O [Pin-glycine] | 1.1 ± 0.05 |

Same assay, conditions: 0.7 μM

| Compound | Gmax/Gmax0 | ΔV0.5 (voltage dependence of inactivation) [mV] |
| --- | --- | --- |
| CCCCC/C=C\C/C=C\CCCCCCCC(=O)NCCS(=O)(=O)O [Lin-taurine, Linoleoyl taurine] | 1.0 ± 0.01 | -2.2 ± 0.7 |
| CCCCC/C=C\C/C=C\CCCCCCCC(=O)NCC(=O)O [Lin-glycine] | 1.0 ± 0.05 | -1.2 ± 0.3 |
| CCCCC/C=C\C/C=C\CC/C=C\CCCC(=O)NCC(=O)O [Pin-glycine] | 1.0 ± 0.03 | 0.4 ± 0.6 |

Same assay, conditions: 0.7 μM; relative current at 0 mV

| Compound | INa I/I0 |
| --- | --- |
| CCCCC/C=C\C/C=C\CCCCCCCC(=O)NCCS(=O)(=O)O [Lin-taurine, Linoleoyl taurine] | 1.0 ± 0.05 |
| CCCCC/C=C\C/C=C\CCCCCCCC(=O)NCC(=O)O [Lin-glycine] | 1.0 ± 0.04 |
| CCCCC/C=C\C/C=C\CC/C=C\CCCC(=O)NCC(=O)O [Pin-glycine] | 1.1 ± 0.1 |

Same assay, conditions: 2 μM

| Compound | Gmax/Gmax0 | ΔV0.5 (voltage dependence of inactivation) [mV] |
| --- | --- | --- |
| CCCCC/C=C\C/C=C\CCCCCCCC(=O)NCCS(=O)(=O)O [Lin-taurine, Linoleoyl taurine] | 0.9 ± 0.05 | -8.8 ± 1.7 |
| CCCCC/C=C\C/C=C\CCCCCCCC(=O)NCC(=O)O [Lin-glycine] | 0.9 ± 0.06 | -4.3 ± 0.8 |
| CCCCC/C=C\C/C=C\CC/C=C\CCCC(=O)NCC(=O)O [Pin-glycine] | 0.9 ± 0.04 | -0.3 ± 0.7 |

Same assay, conditions: 2 μM; relative current at 0 mV

| Compound | INa I/I0 |
| --- | --- |
| CCCCC/C=C\C/C=C\CCCCCCCC(=O)NCCS(=O)(=O)O [Lin-taurine, Linoleoyl taurine] | 0.6 ± 0.07 |
| CCCCC/C=C\C/C=C\CCCCCCCC(=O)NCC(=O)O [Lin-glycine] | 0.9 ± 0.1 |
| CCCCC/C=C\C/C=C\CC/C=C\CCCC(=O)NCC(=O)O [Pin-glycine] | 1.0 ± 0.1 |

Same assay, conditions: 7 μM

| Compound | Gmax/Gmax0 | ΔV0.5 (voltage dependence of inactivation) |
| --- | --- | --- |
| CCCCC/C=C\C/C=C\CCCCCCCC(=O)NCCS(=O)(=O)O [Lin-taurine, Linoleoyl taurine] | 0.5 ± 0.07 | −23.5 ± 1.9 mV |
| CCCCC/C=C\C/C=C\CCCCCCCC(=O)NCC(=O)O [Lin-glycine] | 0.5 ± 0.1 | −15.2 ± 2.8 mV |
| CCCCC/C=C\C/C=C\CC/C=C\CCCC(=O)NCC(=O)O [Pin-glycine] | 0.7 ± 0.08 | –4.7 ± 1.9 mV |

Same assay, conditions: 7 μM; listed as lin-glycine

| Compound | ΔV0.5 (voltage dependence of inactivation) [mV] |
| --- | --- |
| CCCCC/C=C\C/C=C\CCCCCCCC(=O)NCC(=O)O [Lin-glycine] | -15.2 ± 2.8 |

Same assay, conditions: 7 μM; listed as lin-taurine

| Compound | ΔV0.5 (voltage dependence of inactivation) [mV] |
| --- | --- |
| CCCCC/C=C\C/C=C\CCCCCCCC(=O)NCCS(=O)(=O)O [Lin-taurine, Linoleoyl taurine] | -23.5 ± 1.9 |

Same assay, conditions: 7 μM; listed as pin-glycine

| Compound | Gmax/Gmax0 | ΔV0.5 (voltage dependence of inactivation) [mV] |
| --- | --- | --- |
| CCCCC/C=C\C/C=C\CC/C=C\CCCC(=O)NCC(=O)O [Pin-glycine] | 0.7 ± 0.1 | -4.8 ± 1.9 |

Same assay, conditions: 7 μM; relative current at 0 mV

| Compound | INa I/I0 |
| --- | --- |
| CCCCC/C=C\C/C=C\CCCCCCCC(=O)NCCS(=O)(=O)O [Lin-taurine, Linoleoyl taurine] | 0.1 ± 0.02 (p=0.0001) |
| CCCCC/C=C\C/C=C\CCCCCCCC(=O)NCC(=O)O [Lin-glycine] | 0.5 ± 0.1 (p=0.02) |
| CCCCC/C=C\C/C=C\CC/C=C\CCCC(=O)NCC(=O)O [Pin-glycine] | 0.7 ± 0.1 (p=0.09) |

Same assay, conditions: 7 μM; relative current at 0 mV; listed as lin-glycine

| Compound | INa I/I0 |
| --- | --- |
| CCCCC/C=C\C/C=C\CCCCCCCC(=O)NCC(=O)O [Lin-glycine] | 0.5 ± 0.1 |

Same assay, conditions: 7 μM; relative current at 0 mV; listed as lin-taurine

| Compound | INa I/I0 |
| --- | --- |
| CCCCC/C=C\C/C=C\CCCCCCCC(=O)NCCS(=O)(=O)O [Lin-taurine, Linoleoyl taurine] | 0.1 ± 0.02 |

Same assay, conditions: 7 μM; relative current at 0 mV; listed as pin-glycine

| Compound | INa I/I0 |
| --- | --- |
| CCCCC/C=C\C/C=C\CC/C=C\CCCC(=O)NCC(=O)O [Pin-glycine] | 0.7 ± 0.1 |

Same assay, conditions: 20 μM

| Compound | Gmax/Gmax0 | ΔV0.5 (voltage dependence of inactivation) [mV] |
| --- | --- | --- |
| CCCCC/C=C\C/C=C\CCCCCCCC(=O)NCCS(=O)(=O)O [Lin-taurine, Linoleoyl taurine] | 0.3 ± 0.04 | -34.9 ± 1.5 |
| CCCCC/C=C\C/C=C\CCCCCCCC(=O)NCC(=O)O [Lin-glycine] | 0.2 ± 0.02 | -21.7 ± 1.2 |
| CCCCC/C=C\C/C=C\CC/C=C\CCCC(=O)NCC(=O)O [Pin-glycine] | 0.3 ± 0.1 | -17.8 ± 4.2 |

Same assay, conditions: 20 μM; relative current at 0 mV

| Compound | INa I/I0 |
| --- | --- |
| CCCCC/C=C\C/C=C\CCCCCCCC(=O)NCCS(=O)(=O)O [Lin-taurine, Linoleoyl taurine] | 0.1 ± 0.01 |
| CCCCC/C=C\C/C=C\CCCCCCCC(=O)NCC(=O)O [Lin-glycine] | 0.3 ± 0.02 |
| CCCCC/C=C\C/C=C\CC/C=C\CCCC(=O)NCC(=O)O [Pin-glycine] | 0.3 ± 0.1 |

Same assay, conditions: 0.2-20 μM

| Compound | shift of the voltage dependence of activation |
| --- | --- |
| CCCCC/C=C\C/C=C\CCCCCCCC(=O)NCCS(=O)(=O)O [Lin-taurine, Linoleoyl taurine] | no shift in the voltage dependence of activation |
